Measurements: US11571427B2, “Targeting the CBM signalosome complex induces regulatory T cells to inflame the tumor microenvironment” (THE GENERAL HOSPITAL CORPORATION, priority 2017, dated 2023)

Experiments:
D4M.3A melanoma [1] = assay: D4M.3A tumor growth in RAG1-deficient hosts; type: in vivo, mice; details: hosts lack lymphocytes, FIG. 4D
From the text: Mice. Foxp3YFP-Cre (Ref. 1), Foxp3GFP-Cre-ERT2 (Ref 2), Rosa26YFP (Ref. 4), Ifng KO (Ref.5) and C57BL/6/J mice were purchased from Jackson laboratories. […] and James J. […] Animals were housed in specific pathogen-free facilities at the Massachusetts General Hospital (MGH) and all experimental studies were approved and performed in accordance with guidelines and regulations implemented by the MGH Institutional Animal Care and Use Committee (IACUC). For survival studies the age of mice at euthanasia mandated by a moribund state of health was recorded in Kaplan Meyer plots. […] Wherever possible, animals were randomized into treatment groups. Tumor volumes were measured every second to third day after start of treatments and calculated as V=(length×width^2)/2.

D4M.3A melanoma [2] = assay: D4M.3A tumor growth in F^Cre/+×C1^+/+ or f/f mice treated with Mepazine or vehicle; type: in vivo; details: Mepazine from day 9, FIG. 13C
Description: FIGS. 13A-13K. (FIG. 13A), MHC II expression on tumor-associated macrophages in D4M.3A-implanted F^Cre/+×C1^++, f/+ or f/f mice. (FIG. 13B), D4M.3A tumor growth in mice treated with depleting αCD8 Ab from day 8 and treated with mepazine or not from day 9. (FIG. 13C), D4M.3A tumor growth in F^Cre/+×C1^+/+ or f/f mice treated with Mepazine or vehicle starting on day 9. (FIG. 13D), YFP^+ Treg were sorted from F^Cre×C1^+/+ mice and treated with 10 μM Mepazine of vehicle for 8 or 24 hours with or without concurrent αCD3/28 mAb TCR stimulation (8 h time-point only) and expression of Foxp3, markers of eTreg differentiation, cell viability, and frequency of eTreg were recorded. (FIG. 13E), RT-qPCR analysis of expression of Foxp3 and various Treg-associated genes in whole tumor tissue lysate following 3 days of Mepazine or vehicle treatment. (FIGS. 13F-13J), Composition of the tumor tissue immune infiltrate and frequencies of CD45^+ cells (FIG. 13G) and of various immune cell subsets (FIG. 13H) as well Ki67 expression by Tconv (FIG. 13I) and MHC II expression by macrophages (FIG. 13J) following 3 days of Mepazine or vehicle treatment. […]
Tumor growth studies and treatments. […] Tumor volumes were measured every second to third day after start of treatments and calculated as V=(length×width^2)/2. […]

tumor-infiltrating Treg = assay: In situ effector cytokine expression and frequency of tumor-infiltrating Treg (flow cytometry); type: in vivo, mice; details: within 3 days of mepazine, FIG. 14K
Description: (§1) Preparation of single cell suspensions, antibody staining and flow cytometry. Heparinized peripheral blood collected through sub-mandibular vein puncture was treated with ACK red blood cell lysis buffer. LNs and spleens were passed through 40 μm cell strainers, followed by red blood cell lysis (spleens only). Tumors were minced into small fragments and treated with 1.5 mg/ml collagenase IV and 50 U/ml DNAse I for 30 min. at 37° C. under agitation.
Intracellular and nuclear proteins were stained for 60 minutes at room temperature after permeabilization and fixation (Mouse regulatory T cell staining Kit; eBioscience) using antibodies against: CD152/CTLA-4-(UC10-4B9), TNF (MP6-XT22), IL-4 (11B11), IL-17A (TC11-18H10.1), IFNγ (XMG1.2), and Ki67 (16A8) (BD Biosciences), BIM (C34C5), CARD11/CARMA1 (1D12) (Cell Signaling), Foxp3 (FJK-16s, eBioscience), GFP (rabbit polyclonal, Invitrogen). Polyclonal goat α-rabbit Ig (H+L) secondary antibody (Life Technologies) was used to reveal primary α-CARMA1 staining.
(§2) Preceding antibody staining, Fc receptors were blocked with TruStain fcX (Biolegend) for 20 minutes at 4° C., followed by dead cells staining using the fixable viability violet dye […] (Biolegend) for 15 minutes at room temperature. Cells were analyzed on LSRII, LSRFortessa or LSRFortessa X-20 flow cytometers (BD Biosciences), and data were analyzed with FlowJo software version 9.9.5.
Analysis of in situ and ex vivo stimulated cytokine secretion. To detect in situ cytokine secretion, mice were slowly i.v. injected with 500 μg of fully dissolved Brefeldin A in 250 μl PBS 6 h before sacrifice and intracellular cytokine staining.

Treg = assay: In vitro treatment of sorted YFP+ Treg with Mepazine; type: cell-based, mice; details: 10 μM Mepazine
Description: (§3) FIGS. 13A-13K. (FIG. 13A), MHC II expression on tumor-associated macrophages in D4M.3A-implanted F^Cre/+×C1^++, f/+ or f/f mice. (FIG. 13B), D4M.3A tumor growth in mice treated with depleting αCD8 Ab from day 8 and treated with mepazine or not from day 9. (FIG. 13C), D4M.3A tumor growth in F^Cre/+×C1^+/+ or f/f mice treated with Mepazine or vehicle starting on day 9. (FIG. 13D), YFP^+ Treg were sorted from F^Cre×C1^+/+ mice and treated with 10 μM Mepazine of vehicle for 8 or 24 hours with or without concurrent αCD3/28 mAb TCR stimulation (8 h time-point only) and expression of Foxp3, markers of eTreg differentiation, cell viability, and frequency of eTreg were recorded. (FIG. 13E), RT-qPCR analysis of expression of Foxp3 and various Treg-associated genes in whole tumor tissue lysate following 3 days of Mepazine or vehicle treatment. (FIGS. 13F-13J), Composition of the tumor tissue immune infiltrate and frequencies of CD45^+ cells (FIG. 13G) and of various immune cell subsets (FIG. 13H) as well Ki67 expression by Tconv (FIG. 13I) and MHC II expression by macrophages (FIG. 13J) following 3 days of Mepazine or vehicle treatment. (FIG. 13K), Effector cytokine co-expression by tumor-infiltrating Treg following 12 days Mepazine and αPD-1 Ab treatment. *=p<0.05, **=p<0.01, and ***=p<0.001. *, #=any p<0.05 vs. C1^+/+ and C1^+/++ Mepazine, resp. in FIG. 13C.

D4M.3A tumor cells = assay: MHC I and PD-L1 expression on tumor cells after mepazine treatment; type: in vivo, mice; details: within 3 days of mepazine; FIG. 4E
Description: (FIG. 4A) Female Foxp3^GFP-CreERT2×CARMA1^+/+ and ×CARMA1^1111 mice were implanted with D4M.3A melanoma and starting on day 9 treated with tamoxifen until the end of the experiment as well as with three doses of 200 μg of the blocking α-PD-1 antibody 29F.1A12 or isotype control antibody, and tumor growth was recorded. […] (FIGS. 4C and 4D) D4M.3A tumor growth in C57BL/6 (FIG. 4C) or RAG1-deficient hosts (FIG. 4D) treated with MALT1 inhibitors mepazine or MI-2. (FIGS. 4E-4G) Mepazine effects within 3 days on MHC I and PD-L1 expression on tumor cells (FIG. 4E), expression of genes of adaptive immune resistance (Pdl1, Socs1), MHC I antigen presentation (Tap1), IFNγ-signaling (Stat1, Irf1), T cell recruitment (CXCL10), M1 macrophage activation (Nos2), and cytotoxicity (Gzmb) (FIG. 4F), as well as the frequency of CD4^+ and CD8^+ T cells (FIG. 4G). […] All graphs show means and either individual replicates or ±SEM.
Preparation of single cell suspensions, antibody staining and flow cytometry. […]
Preceding antibody staining, Fc receptors were blocked with TruStain fcX (Biolegend) for 20 minutes at 4° C., followed by dead cells staining using the fixable viability violet dye Zombie Red (Biolegend) for 15 minutes at room temperature. Cells were analyzed on LSRII, LSRFortessa or LSRFortessa X-20 flow cytometers (BD Biosciences), and data were analyzed with FlowJo software version 9.9.5.

whole tumor tissue = assay: Gene expression in whole tumor tissue (RT-qPCR); type: in vivo, mice
Description: Quantitative RT-PCR. For analysis of gene expression, RNA was isolated (AllPrep, DNA/RNA Mini kit; Qiagen) from CD4+ GFP+ Treg sorted to >99% purity from tdFNs and tumors, or from homogenized tumor tissue, and reverse transcribed using iScript cDNA Synthesis Kit (Bio-RAD). Quantitative RT-PCR was performed using iQ SYBR green supermix (Bio-RAD) and primers: […]
Results were expressed as 2-ΔCT relative to the house keeping gene GAPDH.

[3] = tested on: tumor tissue immune infiltrate; assay: Composition of the tumor tissue immune infiltrate; type: in vivo, mice; details: 3 days of Mepazine or vehicle; FIGS. 13F-13J
Description: as §3
as §1, with “Tumors were minced into small fragments and treated with 1.5 mg/ml collagenase IV and 50 U/ml DNAse I for 30 min. at 37° C. under agitation.” left out
as §2

SMILES | tumor growth in Rag1-deficient mice (D4M.3A melanoma [1]) | addition to anti-tumor effect of CARMA1-deletion in Treg (D4M.3A melanoma [2]) | IFNγ-expression by tumor-infiltrating Treg (tumor-infiltrating Treg; in situ) | TNF-expression by tumor-infiltrating Treg (tumor-infiltrating Treg; in situ) | Treg frequency in tumor (tumor-infiltrating Treg) | Foxp3 expression of Treg in vitro (Treg; 8 or 24 hours, FIG. 13D) | GITR expression of Treg in vitro (Treg; 8 or 24 hours, FIG. 13D) | effector cytokine expression of Treg in vitro (Treg; not shown) | MHC I expression on tumor cells (D4M.3A tumor cells) | PD-L1-expression on tumor cells (D4M.3A tumor cells) | expression of Treg-associated genes in tumor tissue (whole tumor tissue; 3 days of Mepazine or vehicle, FIG. 13E) | IFN-γ-regulated genes in whole tumor tissue (whole tumor tissue; 3 days of mepazine) | frequency of CTL in tumor tissue [3] | frequency of NK cells in tumor tissue [3] | immune cell infiltration of tumor tissue [3]
COCCOc1nc(-c2ccc(Cl)c(Cl)c2)n(-c2ccc(NC(=O)CCl)cc2)n1 [MI-2] | no effect on tumor growth |  |  |  |  |  |  |  |  |  |  |  |  |  | 
CN1CCCC(CN2c3ccccc3Sc3ccccc32)C1 (stereo not shown) [mepazine] | no effect on tumor growth | did not add to the anti-tumor effect of CARMA1-deletion in Treg | rapid induction | rapid induction | did not reduce Treg frequency | only a minor reduction | only a minor reduction | no effector cytokine expression | up-regulation | up-regulation | not altered | induction of a wide range of IFN-γ-regulated genes | increased | increased | generally enhanced
